These results are taken from ChEMBL document CHEMBL1201862, “PubChem BioAssay data set” (2004).

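Exposure lasted 48 hours, with cells grown in 96-well plates and compounds tested at five concentrations. GI50: concentration for 50% inhibition of growth.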 The source made the active and inactive calls. Rule as the data show it: active = GI50 up to about 1.1 µM and inactive = higher.

Some test systems named below: MDA-N; SR; T47D; HCT-116; LOX IMVI; UO-31; SF-539; MCF7; M14; SK-MEL-28; MDA-MB-435; NCI-H522; OVCAR-8; HCC 2998; SNB-75; SF-295; OVCAR-4; PC-3; NCI/ADR-RES; NCI-H23.
Common to all, as to experiment: DTP human tumour cell line panel, 48 h

`COc1ccc2oc(=O)cc(C)c2c1`: the GI50 in the assay with MDA-N is > 100 µM (inactive); with SR it was > 100 µM (inactive); in the assay on T47D it was 0.0733 µM (active); in the assay with HCT-116 it was > 100 µM (inactive); in the assay with LOX IMVI, > 100 µM (inactive); with UO-31, 91.4 µM (inactive). Besides, the GI50 in the assay on SF-539, with MCF7, in the assay with M14, in the assay on SK-MEL-28, with MDA-MB-435 and with NCI-H522 was > 100 µM (inactive) each time. Besides, the GI50 was > 100 µM (inactive) in the assay on OVCAR-8; > 100 µM (inactive) in the assay with HCC 2998; 88.5 µM (inactive) in the assay on SNB-75; > 100 µM (inactive) with SF-295; > 100 µM (inactive) with OVCAR-4; > 100 µM (inactive) in the assay with PC-3. Besides, the GI50 in the assay with NCI/ADR-RES and with NCI-H23 was > 100 µM (inactive) each time.

For `CCc1c(CNc2ccc(C(=O)NC(CC(=O)O)C(=O)O)cc2)ccc2nc(N)nc(N)c12` (stereo not given), the GI50 was < 0.01 µM (active) in the assay on MDA-N; < 0.01 µM (active) in the assay on SR; 20.5 µM (inactive) in the assay with T47D; < 0.01 µM (active) in the assay on HCT-116; < 0.0162 µM (active) in the assay with LOX IMVI; 0.75 µM (active) in the assay on UO-31. Further, the GI50 is < 0.0292 µM (active) with SF-539; < 0.0182 µM (active) in the assay with MCF7; < 0.01 µM (active) in the assay on M14; 10.2 µM (inactive) with SK-MEL-28; < 0.01 µM (active) in the assay on MDA-MB-435; 0.914 µM (active) in the assay with NCI-H522. For the same compound, the GI50 with OVCAR-8 was < 0.0184 µM (active); in the assay on HCC 2998 it was 0.0465 µM (active); with SNB-75 it was 3.52 µM (inactive); in the assay on SF-295, 0.0371 µM (active); in the assay with OVCAR-4 it was > 48.8 µM (inactive); in the assay with PC-3, 305 µM (inactive). Moreover, the GI50 is 0.0288 µM (active) in the assay with NCI/ADR-RES and < 0.0291 µM (active) with NCI-H23.

With `CCOC(=O)C1(C(=O)OCC)CC(=O)[C@@]2(C1)OCC[C@H]1OC(=O)C[C@H]12`, the GI50 in the assay on MDA-N, with SR, in the assay on T47D, in the assay with HCT-116, with LOX IMVI and in the assay with UO-31 was > 100 µM (inactive) throughout. Moreover, the GI50 with SF-539, with MCF7, in the assay on M14, in the assay on SK-MEL-28, in the assay on MDA-MB-435 and in the assay on NCI-H522 was > 100 µM (inactive) each time. Besides, the GI50 with OVCAR-8, in the assay on HCC 2998, with SNB-75, with SF-295, with OVCAR-4 and with PC-3 was > 100 µM (inactive) in each case. Besides, the GI50 in the assay with NCI/ADR-RES and in the assay with NCI-H23 was > 100 µM (inactive) each time.

For `CCOC(=O)c1nc2cc(Cl)ccc2[nH]c1=O`, the GI50 with MDA-N, in the assay with SR, in the assay on T47D, in the assay with HCT-116, in the assay on LOX IMVI and with UO-31 was > 100 µM (inactive) each time. Further, the GI50 in the assay on SF-539, in the assay with MCF7, in the assay on M14, in the assay with SK-MEL-28, with MDA-MB-435 and in the assay on NCI-H522 was > 100 µM (inactive) each time. For the same compound, the GI50 in the assay with OVCAR-8 was > 100 µM (inactive); with HCC 2998 it was > 100 µM (inactive); in the assay on SNB-75, < 0.01 µM (active); in the assay with SF-295, > 100 µM (inactive); with OVCAR-4, > 100 µM (inactive); in the assay with PC-3, > 100 µM (inactive). Moreover, the GI50 with NCI/ADR-RES and in the assay on NCI-H23 was > 100 µM (inactive) each time.

On to `CCCCCCCCCCCCCCCCOP(=O)([O-])OCC[N+](C)(C)C` [MILTEFOSINE], for which the GI50 in the assay with MDA-N was 25.1 µM (inactive); in the assay with SR it was 6.21 µM (inactive); with T47D, 18.2 µM (inactive); in the assay with HCT-116 it was 18.2 µM (inactive); in the assay with LOX IMVI, 21.5 µM (inactive); in the assay with UO-31, 20.6 µM (inactive). For the same compound, the GI50 was 30.5 µM (inactive) in the assay with SF-539; 24.9 µM (inactive) in the assay on MCF7; 16.4 µM (inactive) in the assay with M14; 27.9 µM (inactive) in the assay on SK-MEL-28; 17.9 µM (inactive) in the assay on MDA-MB-435; 16.4 µM (inactive) in the assay on NCI-H522. Also, the GI50 in the assay with OVCAR-8 is 25.8 µM (inactive); in the assay on HCC 2998 it was 5.38 µM (inactive); in the assay with SNB-75, 18.7 µM (inactive); with SF-295, 7.69 µM (inactive); with OVCAR-4 it was 18.2 µM (inactive); with PC-3, 1.56 µM (inactive). Further, the values for the GI50 in the assay on NCI/ADR-RES and in the assay with NCI-H23 were 43.4 µM (inactive) and 33.3 µM (inactive), respectively.
